This assay concerns the target MC4-R (Homo sapiens, UniProt P32245). Nature of the assay: cAMP Scintillation Proximity Assay (SPA) in cells expressing MC4-R. The assay is classed as cell-based. The following applies: intercellular cAMP concentration by SPA kit, read-out: in vitro potency (as measured by EC50 value). The procedure:
EC50 values of test compounds were determined by treating cells expressing MC4-R with test compound and lysing the cells and measuring intercellular cAMP concentration with an Amersham-Pharmacia RPA-559 cAMP Scintillation Proximity Assay (SPA) kit. The following compounds were synthesized and tested according to this assay. The following compounds are merely illustrative and should not be construed as limiting of the instant invention.
On the technique in general: SPA uses beads or plates that emit light when radiolabelled molecules are held near them.

SMILES strings stand for the structures. pEC50: −log10 of the molar value.

In general, pEC50 refers to the EC50 on a negative log10 scale, so that one unit is a factor of ten.

Sequence of MC4-R (P32245 whole entry, species assumed): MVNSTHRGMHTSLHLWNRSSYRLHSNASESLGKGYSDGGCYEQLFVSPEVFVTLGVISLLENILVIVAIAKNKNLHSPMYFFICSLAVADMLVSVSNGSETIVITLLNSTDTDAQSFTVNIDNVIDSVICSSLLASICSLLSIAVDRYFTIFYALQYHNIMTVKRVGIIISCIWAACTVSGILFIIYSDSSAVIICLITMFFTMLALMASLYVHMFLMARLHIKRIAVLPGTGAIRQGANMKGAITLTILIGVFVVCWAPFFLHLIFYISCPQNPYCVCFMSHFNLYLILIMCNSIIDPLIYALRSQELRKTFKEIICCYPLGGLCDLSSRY

For the compound `C[C@@H]1[C@@H](N=C(Nc2ccc3c(c2)CN(CCc2ccc(Cl)cc2Cl)C3=O)N2CCN[C@@H](C)C2)C[C@H]2C[C@@H]1C2(C)C` [Example 1, (3S)-N-{2-[2-(2,4-dichlorophenyl)ethyl]-1-oxo-2,3-dihydro-1H-isoindol-5-yl}-3-methyl-N′-[(1S,2S,3S,5R)-2,6,6-trimethylbicyclo[3.1.1]hept-3-yl]piperazine-1-carboximidamide], the negative logarithm of the EC50 (pEC50) is above 5.52.
Take `C[C@@H]1[C@@H](N=C(Nc2ccc3c(c2)C(=O)N(CCc2ccc(Cl)cc2Cl)C3)N2CCN[C@@H](C)C2)C[C@H]2C[C@@H]1C2(C)C` [Example 3, (3S )-N-{2-[2-(2,4-dichlorophenyl)ethyl]-3-oxo-2,3-dihydro-1H-isoindol-5-yl}-3-methyl-N′-[(1S,2S,3S,5R)-2,6,6-trimethylbicyclo[3.1.1]hept-3-yl]piperazine-1-carboximidamide]: the pEC50 is above 5.52.
To `C[C@@H]1[C@@H](N=C(Nc2ccc3c(c2)C(=O)N(Cc2ccc(Cl)cc2Cl)C3=O)N2CCN[C@@H](C)C2)C[C@H]2C[C@@H]1C2(C)C` [Example 4, (3S)-N-[2-(2,4-dichlorobenzyl)-1,3-dioxo-2,3-dihydro-1H-isoindol-5-yl]-3-methyl-N′-[(1S,2S,3S,5R)-2,6,6-trimethylbicyclo[3.1.1]hept-3-yl]piperazine-1-carboximidamide] belongs above 5.52; to `C[C@@H]1[C@@H](N=C(Nc2ccc3c(c2)C(=O)N([C@H](CO)Cc2ccccc2)C3=O)N2CCN[C@@H](C)C2)C[C@H]2C[C@@H]1C2(C)C` [Example 5, (3S)-N-{2-[(1S)-1-benzyl-2-hydroxyethyl]-1,3-dioxo-2,3-dihydro-1H-isoindol-5-yl}-3-methyl-N′-[(1S,2S,3S,5R)-2,6,6-trimethylbicyclo[3.1.1]hept-3-yl]piperazine-1-carboximidamide], above 5.52.
On to `C[C@@H]1[C@@H](N=C(Nc2ccc3c(c2)C(=O)N([C@@H](CO)Cc2ccccc2)C3=O)N2CCN[C@@H](C)C2)C[C@H]2C[C@@H]1C2(C)C` [Example 6, (3S)-N-{2-[(1R)-1-benzyl-2-hydroxyethyl]-1,3-dioxo-2,3-dihydro-1H-isoindol-5-yl}-3-methyl-N′-[(1S,2S,3S,5R)-2,6,6-trimethylbicyclo[3.1.1]hept-3-yl]piperazine-1-carboximidamide], for which the pEC50 is above 5.52.
To `C[C@@H]1[C@@H](N=C(Nc2ccc3c(c2)C(=O)N([C@H](CO)Cc2ccc(Cl)cc2Cl)C3=O)N2CCN[C@@H](C)C2)C[C@H]2C[C@@H]1C2(C)C` [Example 8, (3S )-N-{2-[(1S)-1-(2,4-dichlorobenzyl)-2-hydroxyethyl]-1,3-dioxo-2,3-dihydro-1H-isoindol-5yl}-3-methyl-N′-[(1S,2S,3S,5R)-2,6,6-trimethylbicyclo[3.1.1]hept-3-yl]piperazine-1-carboximidamide] belongs above 5.52; to `C[C@@H]1[C@@H](N=C(Nc2ccc3c(c2)CN([C@H](CO)Cc2ccc(Cl)cc2Cl)C3=O)N2CCN[C@@H](C)C2)C[C@H]2C[C@@H]1C2(C)C` [Example 9, (3S)-N-{2-[(1S)-1-(2,4-dichlorobenzyl)-2-hydroxyethyl]-1-oxo-2,3-dihydro-1H-isoindol-5yl}-3-methyl-N′-[(1S,2S,3S,5R)-2,6,6-trimethylbicyclo[3.1.1]hept-3-yl]piperazine-1-carboximidamide], above 5.52.
To `COc1ccc(CCN2C(=O)c3ccc(NC(=N[C@H]4C[C@H]5C[C@@H]([C@@H]4C)C5(C)C)N4CCN[C@@H](C)C4)cc3C2=O)c(F)c1` [Example 10, (3S)-N-{2-[2-(2-fluoro-4-methoxyphenyl)ethyl]-1,3-dioxo-2,3-dihydro-1H-isoindol-5yl}-3-methyl-N′-[(1S,2S,3S,5R)-2,6,6-trimethylbicyclo[3.1.1]hept-3-yl]piperazine-1-carboximidamide] belongs above 5.52; to `C[C@@H]1[C@@H](N=C(Nc2ccc3c(c2)C(=O)N(CCc2ccc(F)cc2F)C3=O)N2CCN[C@@H](C)C2)C[C@H]2C[C@@H]1C2(C)C` [Example 11, (3S)-N-{2-[2-(2,4-difluorophenyl)ethyl]-1,3-dioxo-2,3-dihydro-1H-isoindol-5yl}-3-methyl-N′-[(1S,2S,3S,5R)-2,6,6-trimethylbicyclo[3.1.1]hept-3-yl]piperazine-1-carboximidamide], above 5.52.
With `COc1ccc(CCN2C(=O)c3ccc(NC(=N[C@H]4C[C@H]5C[C@@H]([C@@H]4C)C5(C)C)N4CCN[C@@H](C)C4)cc3C2=O)c(OC)c1` [Example 12, (3S)-N-{2-[2-(2,4-dimethoxyphenyl)ethyl]-1,3-dioxo-2,3-dihydro-1H-isoindol-5-yl}-3-methyl-N′-[(1S,2S,3S,5R)-2,6,6-trimethylbicyclo[3.1.1]hept-3-yl]piperazine-1-carboximidamide] the figure was above 5.52; with `Cc1ccc(CCN2C(=O)c3ccc(NC(=N[C@H]4C[C@H]5C[C@@H]([C@@H]4C)C5(C)C)N4CCN[C@@H](C)C4)cc3C2=O)c(C)c1` [Example 13, (3S)-N-{2-[2-(2,4-dimethylphenyl)ethyl]-1,3-dioxo-2,3-dihydro-1H-isoindol-5-yl}-3-methyl-N′-[(1S,2S,3S,5R)-2,6,6-trimethylbicyclo[3.1.1]hept-3-yl]piperazine-1-carboximidamide], above 5.52.
Regarding `C[C@@H]1[C@@H](N=C(Nc2ccc3c(c2)C(=O)N([C@@H](CO)[C@@H](O)c2ccccc2)C3=O)N2CCN[C@@H](C)C2)C[C@H]2C[C@@H]1C2(C)C` [Example 14, (3S)-N-{2-[(1S ,2S)-2-hydroxy-1-(hydroxymethyl)-2-phenylethyl]-1,3-dioxo-2,3-dihydro-1H-isoindol-5yl}-3-methyl-N′-[(1S,2S,3S,5R)-2,6,6-trimethylbicyclo[3.1.1]hept-3-yl]piperazine-1-carboximidamide], the pEC50 is above 5.52.
To `C[C@@H]1[C@@H](N=C(Nc2ccc3c(c2)C(=O)N([C@H](CO)[C@H](O)c2ccccc2)C3=O)N2CCN[C@@H](C)C2)C[C@H]2C[C@@H]1C2(C)C` [Example 15, (3S)-N-{2-[(1R,2R)-2-hydroxy-1-(hydroxymethyl)-2-phenylethyl]-1,3-dioxo-2,3-dihydro-1H-isoindol-5-yl}-3-methyl-N′-[(1S,2S,3S,5R)-2,6,6-trimethylbicyclo[3.1.1]hept-3-yl]piperazine-1-carboximidamide] belongs above 5.52.
With `C[C@@H]1[C@@H](N=C(Nc2ccc3c(c2)C(=O)N([C@@H](CO)[C@H](O)c2ccccc2)C3=O)N2CCN[C@@H](C)C2)C[C@H]2C[C@@H]1C2(C)C` [Example 16, (3S )-N-{2-[(1S,2R)-2-hydroxy-1-(hydroxymethyl)-2-phenylethyl]-1,3-dioxo-2,3-dixo-2,3-dihydro-1H-isoindol-5-yl}-3-methyl-N′-[(1S,2S,3S,5R)-2,6,6-trimethylbicyclo[3.1.1]hept-3-yl]piperazine-1-carboximidamide] the figure was above 5.52; with `COc1ccc(CCN2Cc3cc(NC(=N[C@H]4C[C@H]5C[C@@H]([C@@H]4C)C5(C)C)N4CCN[C@@H](C)C4)ccc3C2=O)c(F)c1` [Example 17, (3S)-N-{2-[2-(2-fluoro-4-methoxyphenyl)ethyl]-1-oxo-2,3-dihydro-1H-isoindol-5-yl}-3-methyl-N′-[(1S,2S,3S,5R)-2,6,6-trimethylbicyclo[3.1.1]hept-3-yl]piperazine-1-carboximidamide], above 5.52; with `C[C@@H]1[C@@H](N=C(Nc2ccc3c(c2)CN(CCc2ccc(F)cc2F)C3=O)N2CCN[C@@H](C)C2)C[C@H]2C[C@@H]1C2(C)C` [Example 18, (3S)-N-{2-[2-(2,4-difluorophenyl)ethyl]-1-oxo-2,3-dihydro-1H-isoindol-5-yl}-3-methyl-N′-[(1S,2S,3S,5R)-2,6,6-trimethylbicyclo[3.1.1]hept-3-yl]piperazine-1-carboximidamide], above 5.52.
With `C[C@@H]1[C@@H](N=C(Nc2ccc3c(c2)C(=O)N(CCc2ccc(F)cc2F)C3)N2CCN[C@@H](C)C2)C[C@H]2C[C@@H]1C2(C)C` [Example 19, (3S)-N-{2-[2-(2,4-difluorophenyl)ethyl]-3-oxo-2,3-dihydro-1H-isoindol-5-yl}-3-methyl-N′-[(1S,2S,3S,5R)-2,6,6-trimethylbicyclo[3.1.1]hept-3-yl]piperazine-1-carboximidamide] the figure was above 5.52; with `Cc1ccc(CCN2Cc3cc(NC(=N[C@H]4C[C@H]5C[C@@H]([C@@H]4C)C5(C)C)N4CCN[C@@H](C)C4)ccc3C2=O)c(C)c1` [Example 20, (3S)-N-{2-[2-(2,4-dimethylphenyl)ethyl]-1-oxo-2,3-dihydro-1H-isoindol-5-yl}-3-methyl-N′-[(1S,2S,3S,5R)-2,6,6-trimethylbicyclo[3.1.1]hept-3-yl]piperazine-1-carboximidamide], above 5.52.
For `Cc1ccc(CCN2Cc3ccc(NC(=N[C@H]4C[C@H]5C[C@@H]([C@@H]4C)C5(C)C)N4CCN[C@@H](C)C4)cc3C2=O)c(C)c1` [Example 21, (3S)-N-{2-[2-(2,4-dimethylphenyl)ethyl]-3-oxo-2,3-dihydro-1H-isoindol-5-yl}-3-methyl-N′-[(1S,2S,3S,5R)-2,6,6-trimethylbicyclo[3.1.1]hept-3-yl]piperazine-1-carboximidamide], the negative-log EC50 (pEC50) is above 5.52.
With `C[C@@H]1[C@@H](N=C(Nc2ccc3c(c2)CCN(CCc2ccc(Cl)cc2Cl)C3=O)N2CCN[C@@H](C)C2)C[C@H]2C[C@@H]1C2(C)C` [Example 22, (3S)-N-{2-[2-(2,4-dichlorophenyl)ethyl]-1-oxo-1,2,3,4-tetrahydroisoquinolin-6-yl}-3-methyl-N′-[(1S,2S,3S,5R)-2,6,6-trimethylbicyclo[3.1.1]hept-3-yl]piperazine-1-carboximidamide] the figure was above 5.52; with `C[C@@H]1[C@@H](/N=C(\Nc2ccc3[nH]c(CCc4ccc(Cl)cc4Cl)nc3c2)N2CCN[C@@H](C)C2)C[C@H]2C[C@@H]1C2(C)C` [Example 23, (3S)-N-{2-[2-(2,4-dichlorophenyl)ethyl]-1H-benzimidazol-5-yl}-3-methyl-N′-[(1S,2S,3S,5R)-2,6,6-trimethylbicyclo[3.1.1]hept-3-yl]piperazine-1-carboximidamide], above 5.52.

The values above are taken from patent US6960582B2, “Guanidino compounds” (Chiron Corporation, priority 2001, dated 2005).
